Test [1] relates to Dd2 ELQ300 (Dd2 + pfcytb). Put plainly: [3H]-hypoxanthine incorporation assay. The note with it: Plasmodium falciparum, DD2, 72 h. The test is classed as cell-based, Plasmodium falciparum. The method, then: (§1) ^[a]72-h [^3H] hypoxanthhine incorporation assay. Data is expressed as mean±s.d..
(§2) P. falciparum asexual blood stage parasites were cultured in human red blood cells (RBC, Blutspende SRK, Zurich) at a hematocrit of 5% in RPMI 1640 medium. The RPMI 1640 medium (ThermoFisher Scientific #51800−043) was supplemented with the following: 24 mM NaHCO3 (pH 7.3, Sigma-Aldrich #31437−500G-R), 25 mM Hepes (Sigma-Aldrich #H4034−500G), 0.36 mM hypoxanthine (Sigma-Aldrich # H9377−25G), 100 µg mL^-1 neomycin (Sigma-Aldrich #N6386−100G) and 0.5% Albumax II (Thermo Fisher #11021−045). Additionally, 2 mM choline chloride (279 mg/L, Sigma-Aldrich #C7527−100G) was added to the culture to block the induction of sexual commitment as described. ^[31^] The RPMI 1640 medium and components were dissolved in water (Milli-Q purified), stirred for at least 3 h, and then sterile filtered (0.22 μm pore size) with a bottle top filter (Corning # 431118). Parasite cultures were maintained in an atmosphere of 3% O2, 4% CO2, and 93% N2 in air-tight chambers at 37 °C. The [^3H]-hypoxanthine incorporation assay was used to test compound activity in the specific parasite lines as described.^[32^] Briefly, compounds were dissolved in DMSO (10 mM) and diluted in a hypoxanthine-free culture medium. A limiting dilution was performed over a 64-fold range (6-step twofold dilution) in a 96-well plate in duplicates. For every starting concentration, a limiting dilution was performed over a 64-fold range (6-step twofold dilution) in a 96-well plate in two biological duplicates. Parasites were added at 100 µL to each well containing the compound to obtain a final parasitemia of 0.3% and haematocrit of 1.25%. The plates were incubated for 48 h before 0.25 µCi of [^3H]-hypoxanthine was added per well for an additional 24 h. Parasites were harvested on a glass-fiber filter with a Microbeta FilterMate cell harvester (Perkin Elmer, Waltham, USA) and radioactivity was counted using a MicroBeta2 liquid scintillation counter (Perkin Elmer, Waltham, US). The results were recorded, processed by subtraction of the mean background signal obtained from the uninfected RBC controls and expressed as percentage of untreated controls. The fifty percent inhibitory concentration (IC50) was calculated by using nonlinear, four parameter (variable slope) curve fitting as described ^[33^] after importing into GraphPad Prism (version 8.3.0).

Test [2] concerns Dd2 DDD107458 (Dd2 + pfeEF2). The test is described as follows: [3H]-hypoxanthine incorporation assay. The test is classed as cell-based, Plasmodium falciparum. The note with it: Plasmodium falciparum, DD2, 72 h. The protocol:
as §1, §2

For test [3], the system named is Dd2 NITD609 (Dd2 + pfatp4). Put plainly: [3H]-hypoxanthine incorporation assay. The note with it: Plasmodium falciparum, DD2, 72 h. The test is classed as cell-based, Plasmodium falciparum. The method, then: as §1, §2
In a further test the test system is P. falciparum K1. The test is described as follows: [3H]-hypoxanthine incorporation assay. The test is classed as cell-based, Plasmodium falciparum. The note with it: Plasmodium falciparum; K1; 72-h assay; mean±s.d.; read-out: IC50. The protocol:
as §1, §2

Test [4] has as its system Dd2 Fosmidomycin (Dd2 + pfdxr). Put plainly: [3H]-hypoxanthine incorporation assay. As to conditions: Plasmodium falciparum, DD2, 72 h. The test is classed as cell-based, Plasmodium falciparum. The protocol: as §1, §2
Test [5] deals with Dd2 DSM265 (Dd2 + pfdhodh). The test is described as follows: [3H]-hypoxanthine incorporation assay. The note with it: Plasmodium falciparum, 72 h. The test is classed as cell-based, Plasmodium falciparum. The method, then: as §1, §2
The subject of another test is P. falciparum Dd2. The test is described as follows: [3H]-hypoxanthine incorporation assay. The test is classed as cell-based, Plasmodium falciparum. The note with it: Plasmodium falciparum, DD2, 72 h. The protocol: as §1, §2
Test [6] concerns Dd2 GNF156 (Dd2 + pfcarl). Put plainly: [3H]-hypoxanthine incorporation assay. The test is classed as cell-based, Plasmodium falciparum. The note with it: Plasmodium falciparum, DD2, 72 h. The protocol:
as §1, §2

Test [7] concerns Dd2 MMV390048 (Dd2 + pfpI4k). Put plainly: [3H]-hypoxanthine incorporation assay. As to conditions: Plasmodium falciparum, DD2, 72 h. The test is classed as cell-based, Plasmodium falciparum. The method, then: as §1, §2
A further test deals with 3D7^WT. Put plainly: [3H]-hypoxanthine incorporation assay. The note with it: Plasmodium falciparum, 3D7; 72-h assay; mean±s.d.; read-out: 3D7^WT IC50. The test is classed as cell-based. The protocol: ^[a] 72-h [^3H] hypoxanthhine incorporation assay; Data is expressed as mean±s.d.. The assay was performed in three independent biological experiments, each in biological duplicates.
as §2

A further test deals with Dd2b2^31-R2.1. The test is described as follows: [3H]-hypoxanthine incorporation assay. The test is classed as cell-based, Plasmodium falciparum. As to conditions: Plasmodium falciparum, read-out: mean IC50 value ± s.d. The protocol: as §2, with “The results were recorded, processed by subtraction of the mean background signal obtained from the uninfected RBC controls and expressed as percentage of untreated controls.” left out
(§3) 31 was used for resistance selection studies using the strain Dd2b2 (kindly provided by David Fidock). Resistance selection was done as described in ^[34^]. As summarized in Table S3, an initial inoculum of 2 x 10^9 asexual blood stage parasites (at 2-2.5% parasitemia) were cultured in three independent flasks. […] Cloning via limiting dilution was performed to obtain resistant clones for further characterization as described in section 2.2.5.

The next test deals with Dd2b2^31-R3.1. The test is described as follows: [3H]-hypoxanthine incorporation assay. The test is classed as cell-based, Plasmodium falciparum. The note with it: Plasmodium falciparum, read-out: mean IC50 value ± s.d. The protocol: as §2, with “The results were recorded, processed by subtraction of the mean background signal obtained from the uninfected RBC controls and expressed as percentage of untreated controls.” left out
as §3

A further test relates to Dd2b2^31-R1.1. Put plainly: [3H]-hypoxanthine incorporation assay. The test is classed as cell-based, Plasmodium falciparum. The note with it: Plasmodium falciparum, read-out: mean IC50 value ± s.d. The method, then:
as §2, with “The results were recorded, processed by subtraction of the mean background signal obtained from the uninfected RBC controls and expressed as percentage of untreated controls.” left out
as §3

For another test, the system named is Dd2b2^31-R1.2. Put plainly: [3H]-hypoxanthine incorporation assay. As to conditions: Plasmodium falciparum, read-out: mean IC50 value ± s.d. The test is classed as cell-based, Plasmodium falciparum. The method, then:
as §2, with “The results were recorded, processed by subtraction of the mean background signal obtained from the uninfected RBC controls and expressed as percentage of untreated controls.” left out
as §3

The subject of another test is Dd2b2^WT. The test is described as follows: [3H]-hypoxanthine incorporation assay. The test is classed as cell-based, Plasmodium falciparum. The note with it: Plasmodium falciparum, 72 h, read-out: Parent (Dd2b2^WT) IC50. The method, then:
as §2, with “The results were recorded, processed by subtraction of the mean background signal obtained from the uninfected RBC controls and expressed as percentage of untreated controls.” left out
as §3

Test [8] concerns P. falciparum NF54 strain. Put plainly: [3H]-hypoxanthine incorporation assay, asexual blood stage. The test is classed as cell-based, Plasmodium falciparum. The note with it: Plasmodium falciparum. The protocol: as §2, with “The results were recorded, processed by subtraction of the mean background signal obtained from the uninfected RBC controls and expressed as percentage of untreated controls.” left out

In the next test the target is PfIspD (Plasmodium falciparum, UniProt W7KNE8). Put plainly: PfIspD inhibition. As to conditions: mean ± s.d. The test is classed as biochemical.
PfIspD, sequence (W7KNE8 entry or part of it): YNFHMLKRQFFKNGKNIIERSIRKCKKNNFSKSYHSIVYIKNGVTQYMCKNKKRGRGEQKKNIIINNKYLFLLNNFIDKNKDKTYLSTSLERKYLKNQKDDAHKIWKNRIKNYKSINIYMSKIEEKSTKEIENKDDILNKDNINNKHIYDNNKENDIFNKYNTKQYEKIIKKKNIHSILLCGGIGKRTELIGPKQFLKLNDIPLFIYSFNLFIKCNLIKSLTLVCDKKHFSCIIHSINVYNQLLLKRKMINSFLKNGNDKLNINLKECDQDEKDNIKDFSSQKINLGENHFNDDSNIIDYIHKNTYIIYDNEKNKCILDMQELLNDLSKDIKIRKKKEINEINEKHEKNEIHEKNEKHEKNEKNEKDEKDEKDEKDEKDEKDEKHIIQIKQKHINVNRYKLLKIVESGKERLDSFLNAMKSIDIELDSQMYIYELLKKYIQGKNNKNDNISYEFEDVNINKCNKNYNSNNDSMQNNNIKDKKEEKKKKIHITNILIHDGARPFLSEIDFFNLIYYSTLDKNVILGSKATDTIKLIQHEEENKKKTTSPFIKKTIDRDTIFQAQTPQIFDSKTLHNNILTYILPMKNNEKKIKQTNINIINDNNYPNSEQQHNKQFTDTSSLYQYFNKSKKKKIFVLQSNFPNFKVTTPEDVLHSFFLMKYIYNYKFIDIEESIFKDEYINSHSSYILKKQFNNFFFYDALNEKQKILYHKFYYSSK
For test [9], the system named is mRNA translation in NF54 trophozoite-stage parasites. Put plainly: Surface sensing of translation (SUnSET) assay. The test is classed as cell-based, Plasmodium falciparum. As to conditions: trophozoites 30–35 hpi; 31 at 3x, 50x, 100x IC50; 34 and pyrimethamine at 3x IC50. The method, then:
To confirm the role of 31 as a translation inhibitor, the surface sensing of translation (SUnSET) assay was employed. This involves incubating the culture with a translation inhibitor, puromycin, a structural analogue of aminoacyl tRNA. Puromycin is incorporated in the nascent polypeptide chain and prevents further elongation. When puromcyin is used in sub‐lethal concentrations, incorporation of puromycin in neosynthesized protein correlates with the levels of mRNA translation (Figure 3c, lane2).^[ [27] ^] […] This trend was further confirmed by the quantified western blot signals (Figures 3d and S4C) that are consistent with the iSPP profiling results.
SUnSET: The SUnSET assay was done as described in. ^[27^]Tightly synchronized NF54 wild type parasites were treated with the compounds for 4h at 30-35 hpi (trophozoite stage). The following compounds and amounts used were: cycloheximide (3xIC50, 1,2 µM; Calbiochem), pyrimethamine (3xIC50, 21 nM; MedChemExpress), 34 (3xIC50, 12 µM), and 31 (3xIC50, 12 nM; 50xIC50, 200 nM; 100xIC50, 400 nM). Parasites were incubated with 1 µg mL^-1 (Sigma P8833) for 1 h at 37 °C and saponin lysis was performed.
Saponin lysis and Western blot: Saponin lysis was done on infected RBC at ~5% parasitemia to lyse erythrocytes. Parasite cultures were centrifuged at 1,200 g for 5 min at room temperature. Once the supernatant was discarded, 10 volumes of ice-cold 0.1% (w/v) saponin (Calbiochem 558255, dissolved in PBS, and filtered with 0,22) was added, incubated on ice for 10 min and centrifuged for 2,272 g for 15 min at 4 °C. […] The membrane was washed 3 times in PBS-T (3 min incubation in each washing step) and the signal was detected using the chemiluminescent substrate SuperSignal West Pico Plus (Thermo Scientific, REF 34580) and the imaging system Vilber Fusion FX7 Edge 17.10 SN. Quantification of Western blot signal was done by measuring the integrated density of each lane using ImageJ analysis software (version 1.54p). […]

Molecules are shown by their SMILES. Where two headings read alike, the source gives them in different places.

One may read the IC50 as the concentration needed to halve the response being measured.

In the case of `C[C@H]1[C@H](OC(=O)CCC(=O)O)O[C@@H]2O[C@@]3(C)CC[C@H]4[C@H](C)CC[C@@H]1[C@@]24OO3` [Artesunate, artesunate, reference compound], the IC50 in test [1] amounted to 0.2 ± 0.01 nM; in [2], 0.2 ± 0.2 nM; in [3], 0.2 ± 0.01 nM; with P. falciparum K1 it was 0.2 ± 0.01 nM; in test [4], 0.2 ± 0.01 nM; in [5], 0.2 ± 0.01 nM. The IC50 in the test with P. falciparum Dd2 turned out to be 0.3 ± 0.2 nM; in test [6], 0.2 ± 0.02 nM; in [7], 0.3 ± 0.1 nM; in the test with 3D7^WT, 0.6 ± 0.1 nM; with Dd2b2^31-R2.1, 2.6 ± 1.5 nM; in the test with Dd2b2^31-R3.1 it was 1.2 ± 0.6 nM. Also, the half-inhibitory concentration (IC50) is 1.6 ± 0.3 nM with Dd2b2^31-R1.1; 2.2 ± 0.6 nM in the test with Dd2b2^31-R1.2; 0.5 ± 0.1 nM in the test with Dd2b2^WT; 0.4 ± 0.07 nM in test [8] (NF54, 72 h, Table S2, NF54 sensitive strain, 72-h assay, mean±s.d., read-out: IC50).

With `O=C(Nc1cc(S(=O)(=O)N2CCCC2)ccc1O)c1cccc(Oc2ccccc2)c1` [Compound 1, N-(2-Hydroxy-5-(pyrrolidin-1-ylsulfonyl)phenyl)-3-phenoxybenzamide], the IC50 amounted to 15000 ± 4000 nM at PfIspD and 592 ± 77.6 nM in test [8] (NF54, asexual blood stage, mean ± s.d., read-out: PfNF54 IC50 ± s.d.).

Regarding `CCc1nc(N)nc(N)c1-c1ccc(Cl)cc1` [Pyrimethamine, reference compound], the “mRNA translation (puromycin incorporation)” value in [9] was “did not reduce mRNA translation”.
